The target of the assay is T1, FLT3-ITD (Homo sapiens, UniProt P36888).
T1 sequence (P36888 1-993): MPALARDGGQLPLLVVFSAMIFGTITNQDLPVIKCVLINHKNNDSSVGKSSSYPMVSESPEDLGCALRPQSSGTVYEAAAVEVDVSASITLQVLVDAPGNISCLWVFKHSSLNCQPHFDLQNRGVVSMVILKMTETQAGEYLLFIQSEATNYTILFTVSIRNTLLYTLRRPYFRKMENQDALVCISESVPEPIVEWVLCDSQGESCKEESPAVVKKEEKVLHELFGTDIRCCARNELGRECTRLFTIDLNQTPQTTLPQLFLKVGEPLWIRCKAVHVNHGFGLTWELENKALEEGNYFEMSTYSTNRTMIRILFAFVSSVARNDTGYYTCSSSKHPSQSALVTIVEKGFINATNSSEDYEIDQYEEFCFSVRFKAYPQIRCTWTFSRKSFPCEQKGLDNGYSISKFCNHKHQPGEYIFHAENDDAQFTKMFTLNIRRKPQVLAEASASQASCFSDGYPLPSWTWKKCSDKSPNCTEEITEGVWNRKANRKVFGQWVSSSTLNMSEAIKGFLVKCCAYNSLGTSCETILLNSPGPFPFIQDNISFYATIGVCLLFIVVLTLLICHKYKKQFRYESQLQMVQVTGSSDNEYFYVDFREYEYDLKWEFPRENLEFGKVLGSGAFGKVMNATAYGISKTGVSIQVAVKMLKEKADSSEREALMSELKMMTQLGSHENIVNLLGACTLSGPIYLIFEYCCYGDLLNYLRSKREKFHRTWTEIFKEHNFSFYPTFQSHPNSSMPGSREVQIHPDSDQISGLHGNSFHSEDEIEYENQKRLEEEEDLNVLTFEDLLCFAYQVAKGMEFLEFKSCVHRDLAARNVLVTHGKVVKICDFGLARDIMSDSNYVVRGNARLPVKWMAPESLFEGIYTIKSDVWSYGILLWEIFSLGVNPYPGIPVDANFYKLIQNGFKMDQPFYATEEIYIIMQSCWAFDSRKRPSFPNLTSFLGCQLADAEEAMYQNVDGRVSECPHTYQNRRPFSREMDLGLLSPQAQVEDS
The assay can be described thus: AlphaScreen kinase assay with recombinant enzyme, FLT3-ITD. The format is biochemical. The conditions noted are these: 8pt; read-out: FLT3_ITD 8pt: IC50. The gist of the method:
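Inhibition was measured as a drop in AlphaScreen signal arising from phosphotyrosine-bead capture of a biotinylated poly(Glu4-Tyr) peptide (30 nM) phosphorylated by recombinant kinase. For IC50 work the stated final concentration was 10 μM for the FLT3 mutants and 100 μM for c-KIT.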
A general note: In Alpha technology, singlet oxygen from a donor bead excites a nearby acceptor bead.
What is called IC50 is the concentration that gives 50% inhibition. As to `CNC1CCN(C(=O)c2cccc(-c3cnc4[nH]c(-c5ccnc(OC)c5)cc4c3)n2)C1` (stereo not shown) [Compound P-0060, [6-[2-(2-methoxy-4-pyridyl)-1H-pyrrolo[2,3-b]pyridin-5-yl]-2-pyridyl]-[3-(methylamino)pyrrolidin-1-yl]methanone], the IC50 was 0.0001 to 10 µM.
With `CNC1CCN(C(=O)c2cccc(-c3cnc4[nH]c(-c5ccccc5)cc4c3)n2)C1` (stereo not shown) [Compound P-0040, [3-(methylamino)pyrrolidin-1-yl]-[6-(2-phenyl-1H-pyrrolo[2,3-b]pyridin-5-yl)-2-pyridyl]methanone], the 50% inhibitory concentration (IC50) lay within 0.0001 to 10 µM.
Consider `CNCC1CCN(C(=O)c2cccc(-c3cnc4[nH]c(-c5ccccc5)cc4c3)n2)C1` (stereo not shown) [Compound P-0079, [3-(methylaminomethyl)pyrrolidin-1-yl]-[6-(2-phenyl-1H-pyrrolo[2,3-b]pyridin-5-yl)-2-pyridyl]methanone], for which the IC50 lay in the range of 0.0001 to 10 µM.
Then `CC1CCN(C(=O)c2n[nH]c3ccc(-c4cnc5[nH]c(-c6ccccc6)cc5c4)cc23)CC1` [Compound P-0027, (4-methyl-1-piperidyl)-[5-(2-phenyl-1H-pyrrolo[2,3-b]pyridin-5-yl)-1H-indazol-3-yl]methanone], with 10 to 50 µM.
The value for `CN1CCC(NC(=O)c2n[nH]c3ccc(-c4cnc5[nH]c(-c6ccccc6)cc5c4)cc23)CC1` [Compound P-0022, N-(1-methyl-4-piperidyl)-5-(2-phenyl-1H-pyrrolo[2,3-b]pyridin-5-yl)-1H-indazole-3-carboxamide] was 0.0001 to 10 µM.
The value for `NC1CCN(C(=O)c2cccc(-c3cnc4[nH]c(-c5ccccc5)cc4c3)n2)CC1` [Compound P-0013, (4-amino-1-piperidyl)-[6-(2-phenyl-1H-pyrrolo[2,3-b]pyridin-5-yl)-2-pyridyl]methanone] was 0.0001 to 10 µM.
For `O=C(c1cccc(-c2cnc3[nH]c(-c4ccccc4)cc3c2)n1)N1CC(F)(F)C1` [Compound P-0090, (3,3-difluoroazetidin-1-yl)-[6-(2-phenyl-1H-pyrrolo[2,3-b]pyridin-5-yl)-2-pyridyl]methanone], the IC50 was in the range of 0.0001 to 10 µM.
The value for `COC1CCN(C(=O)c2cccc(-c3cnc4[nH]c(-c5ccccc5)cc4c3)n2)CC1` [Compound P-0098, (4-methoxy-1-piperidyl)-[6-(2-phenyl-1H-pyrrolo[2,3-b]pyridin-5-yl)-2-pyridyl]methanone] was 0.0001 to 10 µM; that for `NC1CCN(C(=O)c2n[nH]c3ccc(-c4cnc5[nH]c(-c6ccccc6)cc5c4)cc23)CC1` [Compound P-0012, (4-amino-1-piperidyl)-[5-(2-phenyl-1H-pyrrolo[2,3-b]pyridin-5-yl)-1H-indazol-3-yl]methanone] was 0.0001 to 10 µM.
The value for `CNC1CCN(C(=O)c2cccc(-c3cnc4[nH]c(-c5cccc(C#N)c5)cc4c3)n2)C1` (stereo not shown) [Compound P-0062, 3-[5-[6-[3-(methylamino)pyrrolidine-1-carbonyl]-2-pyridyl]-1H-pyrrolo[2,3-b]pyridin-2-yl]benzonitrile] was 0.0001 to 10 µM; that for `CC(C)(C#N)NC(=O)c1cccc(-c2cnc3[nH]c(-c4cnc(N5CCOCC5)nc4)cc3c2)n1` [Compound P-0198, N-(1-cyano-1-methyl-ethyl)-6-[2-(2-morpholinopyrimidin-5-yl)-1H-pyrrolo[2,3-b]pyridin-5-yl]pyridine-2-carboxamide] was 0.0001 to 10 µM.
Turning to `CN[C@@H]1CCN(C(=O)c2cccc(-c3cnc4[nH]c(-c5ccccc5)cc4c3)n2)C1` [Compound P-0058, [(3R)-3-(methylamino)pyrrolidin-1-yl]-[6-(2-phenyl-1H-pyrrolo[2,3-b]pyridin-5-yl)-2-pyridyl]methanone], the IC50 is 0.0001 to 10 µM.
Then `CC(C)(C)OC(=O)NC1CCN(C(=O)c2cccc(-c3cnc4[nH]c(-c5ccccc5)cc4c3)n2)CC1` [Compound P-0017, tert-butyl N-[1-[6-(2-phenyl-1H-pyrrolo[2,3-b]pyridin-5-yl)pyridine-2-carbonyl]-4-piperidyl]carbamate], with 0.0001 to 10 µM.
The value for `CNC1CCN(C(=O)c2cccc(-c3cnc4[nH]c(C5=CCC(C)(C)CC5)cc4c3)n2)C1` (stereo not shown) [Compound P-0070, [6-[2-(4,4-dimethylcyclohexen-1-yl)-1H-pyrrolo[2,3-b]pyridin-5-yl]-2-pyridyl]-[3-(methylamino)pyrrolidin-1-yl]methanone] was 0.0001 to 10 µM; that for `CNC1CCN(S(=O)(=O)c2cccc(-c3cnc4[nH]c(-c5ccccc5)cc4c3)n2)C1` (stereo not shown) [Compound P-0063, N-methyl-1-[[6-(2-phenyl-1H-pyrrolo[2,3-b]pyridin-5-yl)-2-pyridyl]sulfonyl]pyrrolidin-3-amine] was 0.0001 to 10 µM.
The value for `NC(=O)Nc1ccc(-c2cnc3[nH]c(-c4ccccc4)cc3c2)cc1` [Compound P-0005, [4-(2-phenyl-1H-pyrrolo[2,3-b]pyridin-5-yl)phenyl]urea] was 0.0001 to 10 µM; that for `CC1(N)CCN(C(=O)c2cccc(-c3cnc4[nH]c(-c5ccccc5)cc4c3)n2)C1` (stereo not shown) [Compound P-0078, (3-amino-3-methyl-pyrrolidin-1-yl)-[6-(2-phenyl-1H-pyrrolo[2,3-b]pyridin-5-yl)-2-pyridyl]methanone] was 0.0001 to 10 µM; that for `CNC1CCN(C(=O)c2cccc(-c3cnc4[nH]c(-c5ccc(F)cc5)cc4c3)n2)C1` (stereo not shown) [Compound P-0055, [6-[2-(4-fluorophenyl)-1H-pyrrolo[2,3-b]pyridin-5-yl]-2-pyridyl]-[3-(methylamino)pyrrolidin-1-yl]methanone] was 0.0001 to 10 µM.
In the case of `CNC1CN(C(=O)c2cccc(-c3cnc4[nH]c(-c5ccccc5)cc4c3)n2)C1` [Compound P-0052, [3-(methylamino)azetidin-1-yl]-[6-(2-phenyl-1H-pyrrolo[2,3-b]pyridin-5-yl)-2-pyridyl]methanone], the 50% inhibitory concentration (IC50) lay within 0.0001 to 10 µM.
For `CC(C)(C#N)NC(=O)c1cccc(-c2cnc3[nH]c(-c4cccc(N5CCCS5(=O)=O)c4)cc3c2)n1` [Compound P-0199, N-(1-cyano-1-methyl-ethyl)-6-[2-[3-(1,1-dioxo-1,2-thiazolidin-2-yl)phenyl]-1H-pyrrolo[2,3-b]pyridin-5-yl]pyridine-2-carboxamide], the IC50 lay within 0.0001 to 10 µM.
As to `CC1(C#N)CCN(C(=O)c2cccc(-c3cnc4[nH]c(-c5ccccc5)cc4c3)n2)CC1` [Compound P-0094, 4-methyl-1-[6-(2-phenyl-1H-pyrrolo[2,3-b]pyridin-5-yl)pyridine-2-carbonyl]piperidine-4-carbonitrile], the IC50 was in the range of 0.0001 to 10 µM.
Consider `NC1CCN(S(=O)(=O)c2cccc(-c3cnc4[nH]c(-c5ccccc5)cc4c3)n2)CC1` [Compound P-0073, 1-[[6-(2-phenyl-1H-pyrrolo[2,3-b]pyridin-5-yl)-2-pyridyl]sulfonyl]piperidin-4-amine], for which the 50% inhibitory concentration (IC50) was 0.0001 to 10 µM.
Then `O=C(c1cccc(-c2cnc3[nH]c(-c4ccccc4)cc3c2)n1)N1CCC(CO)CC1` [Compound P-0023, [4-(hydroxymethyl)-1-piperidyl]-[6-(2-phenyl-1H-pyrrolo[2,3-b]pyridin-5-yl)-2-pyridyl]methanone], with 0.0001 to 10 µM; and `CC(C)(C#N)NC(=O)c1cccc(-c2cnc3[nH]c(-c4cnc(N5CCCC5)nc4)cc3c2)n1` [Compound P-0202, N-(1-cyano-1-methyl-ethyl)-6-[2-(2-pyrrolidin-1-ylpyrimidin-5-yl)-1H-pyrrolo[2,3-b]pyridin-5-yl]pyridine-2-carboxamide], with 0.0001 to 10 µM.
Consider `CS(=O)(=O)NC1CCN(C(=O)c2cccc(-c3cnc4[nH]c(-c5ccccc5)cc4c3)n2)C1` (stereo not shown) [Compound P-0101, N-[1-[6-(2-phenyl-1H-pyrrolo[2,3-b]pyridin-5-yl)pyridine-2-carbonyl]pyrrolidin-3-yl]methanesulfonamide], for which the IC50 lay within 0.0001 to 10 µM.
The value for `COC1CN(C(=O)c2cccc(-c3cnc4[nH]c(-c5ccccc5)cc4c3)n2)C1` [Compound P-0091, (3-methoxyazetidin-1-yl)-[6-(2-phenyl-1H-pyrrolo[2,3-b]pyridin-5-yl)-2-pyridyl]methanone] was 0.0001 to 10 µM.
For `N[C@H]1CCN(C(=O)c2cccc(-c3cnc4[nH]c(-c5ccccc5)cc4c3)n2)C1` [Compound P-0015, [(3S)-3-aminopyrrolidin-1-yl]-[6-(2-phenyl-1H-pyrrolo[2,3-b]pyridin-5-yl)-2-pyridyl]methanone], the half-maximal inhibitory concentration (IC50) lay within 0.0001 to 10 µM.
Then `NCC1CCN(C(=O)c2cccc(-c3cnc4[nH]c(-c5ccccc5)cc4c3)n2)CC1` [Compound P-0026, [4-(aminomethyl)-1-piperidyl]-[6-(2-phenyl-1H-pyrrolo[2,3-b]pyridin-5-yl)-2-pyridyl]methanone], with 0.0001 to 10 µM.

The values above are taken from patent US9938273B2 (Plexxikon Inc., priority 2015, dated 2018).
